Test results from ChEMBL document CHEMBL3044964, “Synthesis of novel imidazo[2,1-b][1,3,4]thiadiazoles appended to sydnone as anticancer agents” (Med Chem Res, 2013).
Values after ≈ are worked out from the molar mass of the structure shown. Active and inactive are the calls of the source. No cut-off for these calls is given here.

How the values were obtained:
[1] = test system: Escherichia coli; assay: Toxicity in wild type Escherichia coli AB1157 assessed as growth inhibition at 2000 ug after 24 hr by agar well diffusion method; assay type: organism-based; settings: in vivo
[2] = test system: Escherichia coli; assay: Toxicity in wild type Escherichia coli AB1157 assessed as growth inhibition after 24 hr by agar well diffusion method; assay type: organism-based; settings: in vivo
[3] = test system: Escherichia coli; assay: Toxicity in wild type Escherichia coli AB1157 assessed as growth inhibition at 1000 ug after 24 hr by agar well diffusion method; assay type: organism-based; settings: in vivo
[4] = test system: Escherichia coli; assay: Toxicity in wild type Escherichia coli AB1157 assessed as growth inhibition at 500 ug after 24 hr by agar well diffusion method; assay type: organism-based; settings: in vivo
[5] = test system: HT-29; assay: Cytotoxicity against Homo sapiens (human) HT-29 cells by SRB assay; assay type: functional
[6] = test system: Escherichia coli; assay: Toxicity in wild type Escherichia coli AB1157 assessed as growth inhibition at 250 ug after 24 hr by agar well diffusion method; assay type: organism-based; settings: in vivo
[7] = test system: Escherichia coli; assay: Toxicity in wild type Escherichia coli AB1157 assessed as growth inhibition at 125 ug after 24 hr by agar well diffusion method; assay type: organism-based; settings: in vivo
[8] = test system: Escherichia coli; assay: Induction of Escherichia coli DNA cleavage at 25 mg after 2 hr by agarose gel electrophoresis

O=c1oc2ccc(Br)cc2cc1-c1cn2nc(-c3c([O-])[o+]nn3-c3ccc(Cl)cc3)sc2n1
diameter of the inhibition zone (DIZ) [1]: 0 cm | MIC [2]: > 2 mg | diameter of the inhibition zone (DIZ) [3]: 0 cm | diameter of the inhibition zone (DIZ) [4]: 0 cm | GI50 [5]: 5.25 µg/mL (≈ 9.67 µM) | LC50 [5]: > 70 µg/mL | TGI [5]: > 40 µg/mL | diameter of the inhibition zone (DIZ) [6]: 0 cm | growth inhibition (GI) [7]: Non-toxic

O=c1oc2ccccc2cc1-c1cn2nc(-c3c([O-])[o+]nn3-c3ccc(Cl)cc3)sc2n1
Activity [8]: Active | diameter of the inhibition zone (DIZ) [1]: 0 cm | MIC [2]: > 2 mg | diameter of the inhibition zone (DIZ) [3]: 0 cm | diameter of the inhibition zone (DIZ) [4]: 0 cm | GI50 [5]: 4 µg/mL (≈ 8.62 µM) | LC50 [5]: > 80 µg/mL | TGI [5]: < 30 µg/mL | diameter of the inhibition zone (DIZ) [6]: 0 cm | growth inhibition (GI) [7]: Non-toxic

COc1ccc(-n2n[o+]c([O-])c2-c2nn3cc(-c4cc5cc(Cl)ccc5oc4=O)nc3s2)cc1
diameter of the inhibition zone (DIZ) [1]: 0.8 cm | MIC [2]: 1 mg | diameter of the inhibition zone (DIZ) [3]: 0.5 cm | diameter of the inhibition zone (DIZ) [4]: 0 cm | GI50 [5]: 3.68 µg/mL (≈ 7.45 µM) | LC50 [5]: > 70 µg/mL | TGI [5]: < 30 µg/mL | diameter of the inhibition zone (DIZ) [6]: 0 cm | growth inhibition (GI) [7]: Non-toxic

COc1ccc(-n2n[o+]c([O-])c2-c2nn3cc(-c4cc5cc(Br)ccc5oc4=O)nc3s2)cc1
diameter of the inhibition zone (DIZ) [1]: 0.8 cm | MIC [2]: 1 mg | diameter of the inhibition zone (DIZ) [3]: 0.5 cm | diameter of the inhibition zone (DIZ) [4]: 0 cm | GI50 [5]: 3.04 µg/mL (≈ 5.65 µM) | LC50 [5]: > 80 µg/mL | TGI [5]: < 30 µg/mL | diameter of the inhibition zone (DIZ) [6]: 0 cm | growth inhibition (GI) [7]: Non-toxic

STANNOUS CHLORIDE
diameter of the inhibition zone (DIZ) [1]: 1.5 cm | MIC [2]: 0.25 mg | diameter of the inhibition zone (DIZ) [3]: 0.8 cm | diameter of the inhibition zone (DIZ) [4]: 0.5 cm | diameter of the inhibition zone (DIZ) [6]: 0.3 cm | growth inhibition (GI) [7]: Non-toxic

Cc1ccc(-n2n[o+]c([O-])c2-c2nn3cc(-c4cc5cc(Cl)ccc5oc4=O)nc3s2)cc1
Activity [8]: Active | diameter of the inhibition zone (DIZ) [1]: 0 cm | MIC [2]: > 2 mg | diameter of the inhibition zone (DIZ) [3]: 0 cm | diameter of the inhibition zone (DIZ) [4]: 0 cm | GI50 [5]: 7.9 µg/mL (≈ 16.5 µM) | LC50 [5]: > 80 µg/mL | TGI [5]: > 40 µg/mL | diameter of the inhibition zone (DIZ) [6]: 0 cm | growth inhibition (GI) [7]: Non-toxic

O=c1oc2ccccc2cc1-c1cn2nc(-c3c([O-])[o+]nn3-c3ccccc3)sc2n1
diameter of the inhibition zone (DIZ) [1]: 0 cm | MIC [2]: > 2 mg | diameter of the inhibition zone (DIZ) [3]: 0 cm | diameter of the inhibition zone (DIZ) [4]: 0 cm | GI50 [5]: 6.3 µg/mL (≈ 14.7 µM) | LC50 [5]: > 70 µg/mL | TGI [5]: > 30 µg/mL | diameter of the inhibition zone (DIZ) [6]: 0 cm | growth inhibition (GI) [7]: Non-toxic

O=c1oc2ccc(Br)cc2cc1-c1cn2nc(-c3c([O-])[o+]nn3-c3ccccc3)sc2n1
diameter of the inhibition zone (DIZ) [1]: 0 cm | MIC [2]: > 2 mg | diameter of the inhibition zone (DIZ) [3]: 0 cm | diameter of the inhibition zone (DIZ) [4]: 0 cm | GI50 [5]: 5.6 µg/mL (≈ 11 µM) | LC50 [5]: > 70 µg/mL | TGI [5]: > 30 µg/mL | diameter of the inhibition zone (DIZ) [6]: 0 cm | growth inhibition (GI) [7]: Non-toxic

O=c1oc2ccc(Cl)cc2cc1-c1cn2nc(-c3c([O-])[o+]nn3-c3ccc(Cl)cc3)sc2n1
Activity [8]: Active | diameter of the inhibition zone (DIZ) [1]: 0 cm | MIC [2]: > 2 mg | diameter of the inhibition zone (DIZ) [3]: 0 cm | diameter of the inhibition zone (DIZ) [4]: 0 cm | GI50 [5]: 8 µg/mL (≈ 16.1 µM) | LC50 [5]: > 80 µg/mL | TGI [5]: > 40 µg/mL | diameter of the inhibition zone (DIZ) [6]: 0 cm | growth inhibition (GI) [7]: Non-toxic

Cc1ccc(-n2n[o+]c([O-])c2-c2nn3cc(-c4cc5ccccc5oc4=O)nc3s2)cc1
diameter of the inhibition zone (DIZ) [1]: 0 cm | MIC [2]: > 2 mg | diameter of the inhibition zone (DIZ) [3]: 0 cm | diameter of the inhibition zone (DIZ) [4]: 0 cm | GI50 [5]: 4.23 µg/mL (≈ 9.54 µM) | LC50 [5]: > 80 µg/mL | TGI [5]: < 30 µg/mL | diameter of the inhibition zone (DIZ) [6]: 0 cm | growth inhibition (GI) [7]: Non-toxic

O=c1oc2ccc(Cl)cc2cc1-c1cn2nc(-c3c([O-])[o+]nn3-c3ccccc3)sc2n1
diameter of the inhibition zone (DIZ) [1]: 0 cm | MIC [2]: > 2 mg | diameter of the inhibition zone (DIZ) [3]: 0 cm | diameter of the inhibition zone (DIZ) [4]: 0 cm | GI50 [5]: 7.7 µg/mL (≈ 16.6 µM) | LC50 [5]: > 80 µg/mL | TGI [5]: > 40 µg/mL | diameter of the inhibition zone (DIZ) [6]: 0 cm | growth inhibition (GI) [7]: Non-toxic

Cc1ccc(-n2n[o+]c([O-])c2-c2nn3cc(-c4cc5cc(Br)ccc5oc4=O)nc3s2)cc1
diameter of the inhibition zone (DIZ) [1]: 0 cm | MIC [2]: > 2 mg | diameter of the inhibition zone (DIZ) [3]: 0 cm | diameter of the inhibition zone (DIZ) [4]: 0 cm | GI50 [5]: 6.1 µg/mL (≈ 11.7 µM) | LC50 [5]: > 70 µg/mL | TGI [5]: > 30 µg/mL | diameter of the inhibition zone (DIZ) [6]: 0 cm | growth inhibition (GI) [7]: Non-toxic

COc1ccc(-n2n[o+]c([O-])c2-c2nn3cc(-c4cc5ccccc5oc4=O)nc3s2)cc1
diameter of the inhibition zone (DIZ) [1]: 0.8 cm | MIC [2]: 1 mg | diameter of the inhibition zone (DIZ) [3]: 0.5 cm | diameter of the inhibition zone (DIZ) [4]: 0 cm | GI50 [5]: 3.14 µg/mL (≈ 6.83 µM) | LC50 [5]: > 70 µg/mL | TGI [5]: < 30 µg/mL | diameter of the inhibition zone (DIZ) [6]: 0 cm | growth inhibition (GI) [7]: Non-toxic
